The values that follow come from ChEMBL document CHEMBL4613323, “Factor H-Inspired Design of Peptide Biomarkers of the Complement C3d Protein” (ACS Med Chem Lett, 2020).

This assay deals with Complement C3 (Homo sapiens, UniProt P01024). Put plainly: Binding affinity to recombinant human C3d assessed as dissociation constant incubated for 5 mins by microscale thermophoresis assay. On the technique in general: MST reads how a fluorescent partner responds to local heating, with and without ligand.
Sequence of Complement C3 (P01024 23-667 limits assumed): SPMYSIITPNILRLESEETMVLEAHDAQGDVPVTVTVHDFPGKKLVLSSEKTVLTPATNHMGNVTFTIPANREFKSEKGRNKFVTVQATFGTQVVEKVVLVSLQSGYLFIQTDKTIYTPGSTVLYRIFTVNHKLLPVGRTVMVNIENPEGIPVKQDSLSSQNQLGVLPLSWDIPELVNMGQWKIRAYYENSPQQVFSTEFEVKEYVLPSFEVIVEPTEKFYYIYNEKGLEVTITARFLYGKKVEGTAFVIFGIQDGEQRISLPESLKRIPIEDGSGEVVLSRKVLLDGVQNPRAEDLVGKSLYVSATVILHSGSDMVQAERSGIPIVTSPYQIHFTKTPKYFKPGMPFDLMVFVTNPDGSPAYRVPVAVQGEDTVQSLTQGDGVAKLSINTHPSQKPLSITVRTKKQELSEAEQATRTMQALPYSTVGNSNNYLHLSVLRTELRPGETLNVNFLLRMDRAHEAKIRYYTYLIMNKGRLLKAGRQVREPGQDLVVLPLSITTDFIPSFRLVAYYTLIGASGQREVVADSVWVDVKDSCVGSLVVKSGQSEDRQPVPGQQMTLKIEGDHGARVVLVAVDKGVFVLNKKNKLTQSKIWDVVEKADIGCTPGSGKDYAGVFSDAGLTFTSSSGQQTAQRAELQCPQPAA
Sequence of Complement C3 (P01024 672-1663 limits assumed): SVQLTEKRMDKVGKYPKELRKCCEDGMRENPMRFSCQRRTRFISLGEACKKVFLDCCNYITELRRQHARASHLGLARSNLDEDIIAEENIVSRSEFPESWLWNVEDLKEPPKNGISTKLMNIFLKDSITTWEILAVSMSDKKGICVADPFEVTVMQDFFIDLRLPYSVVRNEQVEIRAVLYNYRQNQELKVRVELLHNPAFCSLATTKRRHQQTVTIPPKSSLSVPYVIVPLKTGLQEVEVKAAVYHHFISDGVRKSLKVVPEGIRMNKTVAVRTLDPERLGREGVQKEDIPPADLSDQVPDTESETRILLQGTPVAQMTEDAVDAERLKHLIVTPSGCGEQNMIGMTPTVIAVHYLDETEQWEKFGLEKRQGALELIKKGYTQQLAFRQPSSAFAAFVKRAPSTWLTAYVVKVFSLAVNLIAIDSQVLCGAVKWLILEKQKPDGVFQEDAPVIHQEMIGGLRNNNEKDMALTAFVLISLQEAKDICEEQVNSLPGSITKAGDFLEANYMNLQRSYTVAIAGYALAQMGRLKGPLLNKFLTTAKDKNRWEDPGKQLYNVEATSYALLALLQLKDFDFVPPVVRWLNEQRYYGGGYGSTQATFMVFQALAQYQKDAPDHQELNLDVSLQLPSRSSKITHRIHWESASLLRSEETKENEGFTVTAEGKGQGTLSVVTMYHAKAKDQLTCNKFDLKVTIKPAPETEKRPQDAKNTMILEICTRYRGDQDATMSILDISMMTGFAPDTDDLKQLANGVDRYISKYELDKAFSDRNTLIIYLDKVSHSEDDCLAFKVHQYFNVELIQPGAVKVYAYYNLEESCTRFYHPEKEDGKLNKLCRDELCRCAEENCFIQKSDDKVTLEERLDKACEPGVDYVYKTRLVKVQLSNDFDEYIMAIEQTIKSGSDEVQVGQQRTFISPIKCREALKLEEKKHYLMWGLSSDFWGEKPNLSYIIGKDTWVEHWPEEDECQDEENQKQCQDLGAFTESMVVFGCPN

As for `CC(=O)NCC(=O)N[C@H]1CSSC[C@@H](C(=O)NCC(N)=O)NC(=O)[C@H](CCCNC(=N)N)NC(=O)[C@H](Cc2ccc(O)cc2)NC(=O)CNC(=O)[C@H](CCCNC(=N)N)NC(=O)[C@H](CCCCN)NC1=O` (stereo in doubt; form 2), the Kd – broadly, the concentration at which binding is half-saturated – amounted to 61.6 µM.
